The values below come from ChEMBL document CHEMBL1201862, “PubChem BioAssay data set” (2004).

Assay [1] can be described thus: miR-122 activators in hepatoma reporter cells, dose response, cell-based, Huh7 psiCHECK-miR122, Renilla luciferase, cherry-picked (AID 651956).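 Also: huh7 hepatoma cells stably carrying a psiCHECK-2 miR-122 sensor plasmid; renilla luciferase signal reporting endogenous miR-122 activity after 48 h compound exposure.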 The class given is functional.
A short description of assay [2]: HEK293T cytotoxicity, dose response, cytotoxicity control for miR-122 modulator project, cell-based, inhibitor set, cherry-pick, set 2 (AID 720697). The assay is classed as functional.
Assay [3] in a line: HEK293T cytotoxicity, dose response, cytotoxicity control for miR-122 modulator project, cell-based, activator set, cherry-pick (AID 720690).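 Also: HEK293T human cells scored for general mammalian cytotoxicity.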 The assay is classed as functional.
The target of a further assay is Nonstructural protein 1 (Influenza A virus, UniProt Q194T2). The class given is functional, Influenza A virus (A/California/07/2009(H1N1)).
Sequence of Nonstructural protein 1 (Q194T2 whole entry): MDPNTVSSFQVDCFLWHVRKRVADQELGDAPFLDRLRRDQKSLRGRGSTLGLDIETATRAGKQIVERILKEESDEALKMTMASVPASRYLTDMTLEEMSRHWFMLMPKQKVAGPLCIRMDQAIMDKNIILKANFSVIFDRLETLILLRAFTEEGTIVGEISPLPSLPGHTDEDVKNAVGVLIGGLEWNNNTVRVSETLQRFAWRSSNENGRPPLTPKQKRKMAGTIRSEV
For assay [4], the target named is Heat shock protein HSP 90-alpha (Homo sapiens, UniProt P07900). The class given is functional, organism-based.
The target of assay [5] is T1, Histone-lysine N-methyltransferase NSD2 (Homo sapiens, UniProt O96028).
T1 sequence (O96028 whole entry): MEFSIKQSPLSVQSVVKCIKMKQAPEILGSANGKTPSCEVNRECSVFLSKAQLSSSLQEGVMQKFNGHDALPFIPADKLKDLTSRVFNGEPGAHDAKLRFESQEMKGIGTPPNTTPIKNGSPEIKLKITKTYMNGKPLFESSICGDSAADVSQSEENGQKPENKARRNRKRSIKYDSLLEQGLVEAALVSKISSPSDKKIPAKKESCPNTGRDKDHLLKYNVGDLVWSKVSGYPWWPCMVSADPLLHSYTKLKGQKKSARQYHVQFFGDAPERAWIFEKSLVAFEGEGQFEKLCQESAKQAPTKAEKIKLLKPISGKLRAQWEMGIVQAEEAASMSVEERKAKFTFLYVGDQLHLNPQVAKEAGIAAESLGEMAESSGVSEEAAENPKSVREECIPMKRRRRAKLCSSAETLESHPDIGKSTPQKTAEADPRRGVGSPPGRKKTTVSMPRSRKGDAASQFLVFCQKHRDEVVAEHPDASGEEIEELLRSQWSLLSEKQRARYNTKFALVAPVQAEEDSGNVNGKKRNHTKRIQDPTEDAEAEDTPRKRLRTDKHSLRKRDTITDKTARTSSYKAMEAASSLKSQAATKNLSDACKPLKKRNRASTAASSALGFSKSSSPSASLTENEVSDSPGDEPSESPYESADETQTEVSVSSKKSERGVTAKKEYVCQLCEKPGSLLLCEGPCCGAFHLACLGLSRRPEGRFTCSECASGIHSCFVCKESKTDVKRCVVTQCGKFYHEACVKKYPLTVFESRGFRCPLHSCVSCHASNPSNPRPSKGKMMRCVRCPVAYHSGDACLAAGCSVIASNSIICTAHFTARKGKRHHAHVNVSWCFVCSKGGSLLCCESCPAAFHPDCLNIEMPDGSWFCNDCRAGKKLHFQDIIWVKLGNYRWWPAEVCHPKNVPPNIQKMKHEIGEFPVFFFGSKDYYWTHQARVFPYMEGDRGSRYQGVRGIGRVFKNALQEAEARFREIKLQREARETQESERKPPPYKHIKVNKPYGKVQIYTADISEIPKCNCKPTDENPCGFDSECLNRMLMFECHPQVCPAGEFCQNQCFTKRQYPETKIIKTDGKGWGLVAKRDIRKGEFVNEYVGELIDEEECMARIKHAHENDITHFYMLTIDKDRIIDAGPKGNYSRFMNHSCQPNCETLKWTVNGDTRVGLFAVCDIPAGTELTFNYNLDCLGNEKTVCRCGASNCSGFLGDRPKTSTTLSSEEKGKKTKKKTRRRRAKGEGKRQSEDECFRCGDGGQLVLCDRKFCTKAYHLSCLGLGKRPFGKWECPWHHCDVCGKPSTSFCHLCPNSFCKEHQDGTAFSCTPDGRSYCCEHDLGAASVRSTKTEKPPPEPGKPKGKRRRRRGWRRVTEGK
The class given is biochemical.

Assay [6] is described as follows: NIH-3T3 fibroblast cytotoxicity, dose response, cytotoxicity control, cell-based, fluorescence, Alamar Blue, secondary assay (AID 2327).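 Also: NIH-3T3 mouse fibroblasts cultured with fluconazole at 8 µg/mL.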 The assay is classed as functional.
Assay [7] can be described thus: HEp-2 cell cytotoxicity, dose response, cytotoxicity control for RSV inhibitor project, HTS (AID 2410). The assay is classed as functional. The note with it: human respiratory syncytial virus.
Assay [8] is described as follows: C. albicans growth with fluconazole, confirmation, fluorescence, retest (AID 2467). The assay is classed as functional, cell-based.
A further assay deals with Genome polyprotein (dengue virus type 2, UniProt P29990). Nature of the assay: Dengue-2 NS5 methyltransferase inhibitors, primary screen, biochemical, confirmation dose response (AID 588689). The class given is functional.
Sequence of Genome polyprotein (P29990 2492-3391 limits assumed): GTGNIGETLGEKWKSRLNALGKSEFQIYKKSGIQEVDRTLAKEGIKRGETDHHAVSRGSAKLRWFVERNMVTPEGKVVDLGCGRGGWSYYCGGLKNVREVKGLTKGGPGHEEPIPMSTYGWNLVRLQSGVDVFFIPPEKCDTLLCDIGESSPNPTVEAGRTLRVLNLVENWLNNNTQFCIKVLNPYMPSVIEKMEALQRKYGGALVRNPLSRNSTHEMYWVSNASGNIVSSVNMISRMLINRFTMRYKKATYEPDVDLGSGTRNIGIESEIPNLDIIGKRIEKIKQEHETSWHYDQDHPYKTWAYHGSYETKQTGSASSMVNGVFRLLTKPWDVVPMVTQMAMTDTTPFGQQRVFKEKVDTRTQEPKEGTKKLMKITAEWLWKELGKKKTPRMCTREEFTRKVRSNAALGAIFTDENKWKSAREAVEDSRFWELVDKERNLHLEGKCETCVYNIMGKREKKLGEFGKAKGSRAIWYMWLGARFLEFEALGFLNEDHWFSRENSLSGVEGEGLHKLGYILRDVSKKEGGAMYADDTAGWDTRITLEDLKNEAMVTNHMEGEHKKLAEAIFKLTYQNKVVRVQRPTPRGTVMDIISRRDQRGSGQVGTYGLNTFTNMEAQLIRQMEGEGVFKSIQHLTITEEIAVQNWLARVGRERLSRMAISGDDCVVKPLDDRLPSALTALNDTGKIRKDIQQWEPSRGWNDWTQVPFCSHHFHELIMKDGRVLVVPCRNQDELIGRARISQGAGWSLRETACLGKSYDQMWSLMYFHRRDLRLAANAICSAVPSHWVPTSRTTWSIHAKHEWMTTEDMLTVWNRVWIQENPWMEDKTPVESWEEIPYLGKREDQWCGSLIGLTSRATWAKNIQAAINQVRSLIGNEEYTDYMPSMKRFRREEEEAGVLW
Assay [9] addresses T2, Corticotropin-releasing factor receptor 2/Corticotropin-releasing factor-binding protein (Homo sapiens, UniProt P24387+Q13324).
T2 sequence (Q13324 whole entry): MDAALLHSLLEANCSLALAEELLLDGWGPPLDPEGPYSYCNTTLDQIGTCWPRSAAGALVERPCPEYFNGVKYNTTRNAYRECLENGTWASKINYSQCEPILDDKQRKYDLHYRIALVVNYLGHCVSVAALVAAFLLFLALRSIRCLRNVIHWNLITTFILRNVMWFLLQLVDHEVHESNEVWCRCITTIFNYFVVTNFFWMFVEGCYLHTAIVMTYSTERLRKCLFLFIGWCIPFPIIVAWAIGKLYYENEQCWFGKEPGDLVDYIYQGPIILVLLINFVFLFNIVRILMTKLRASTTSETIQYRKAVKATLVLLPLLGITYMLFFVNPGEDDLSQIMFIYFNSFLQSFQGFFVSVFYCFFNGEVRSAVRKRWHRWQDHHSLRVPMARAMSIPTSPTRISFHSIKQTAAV
T2 sequence (P24387 whole entry): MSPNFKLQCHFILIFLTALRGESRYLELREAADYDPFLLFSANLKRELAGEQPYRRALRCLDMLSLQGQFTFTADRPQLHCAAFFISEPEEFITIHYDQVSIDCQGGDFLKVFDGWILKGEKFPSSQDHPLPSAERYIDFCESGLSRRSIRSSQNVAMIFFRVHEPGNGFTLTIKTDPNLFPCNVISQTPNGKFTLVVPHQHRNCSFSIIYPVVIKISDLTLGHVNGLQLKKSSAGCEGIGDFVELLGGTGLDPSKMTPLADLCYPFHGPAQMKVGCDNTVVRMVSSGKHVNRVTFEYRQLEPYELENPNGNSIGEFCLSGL
Nature of the assay: Dose Response confirmation of uHTS hits for small molecule antagonists of the CRF-binding protein and CRF-R2 receptor complex. Particulars: read-out: IC50_Mean. The assay is classed as functional.

The target of assay [10] is T2, Corticotropin-releasing factor receptor 2/Corticotropin-releasing factor-binding protein. Nature of the assay: activators of CRF receptor 2 with binding protein – uHTS hits, confirmation (AID 602473). The assay is classed as functional. Particulars: read-out: EC50_Mean.
A short description of assay [11]: CRF-BP/CRF-R2 complex antagonists, dose response, cell-based, uHTS hits, 384-well (AID 651639). The assay is classed as functional, Homo sapiens. The note with it: read-out: IC50_Mean.
Assay [12] has as its target T3, Replicative DNA helicase DnaB (Mycobacterium tuberculosis, UniProt P9WMR3).
T3 sequence (P9WMR3 whole entry): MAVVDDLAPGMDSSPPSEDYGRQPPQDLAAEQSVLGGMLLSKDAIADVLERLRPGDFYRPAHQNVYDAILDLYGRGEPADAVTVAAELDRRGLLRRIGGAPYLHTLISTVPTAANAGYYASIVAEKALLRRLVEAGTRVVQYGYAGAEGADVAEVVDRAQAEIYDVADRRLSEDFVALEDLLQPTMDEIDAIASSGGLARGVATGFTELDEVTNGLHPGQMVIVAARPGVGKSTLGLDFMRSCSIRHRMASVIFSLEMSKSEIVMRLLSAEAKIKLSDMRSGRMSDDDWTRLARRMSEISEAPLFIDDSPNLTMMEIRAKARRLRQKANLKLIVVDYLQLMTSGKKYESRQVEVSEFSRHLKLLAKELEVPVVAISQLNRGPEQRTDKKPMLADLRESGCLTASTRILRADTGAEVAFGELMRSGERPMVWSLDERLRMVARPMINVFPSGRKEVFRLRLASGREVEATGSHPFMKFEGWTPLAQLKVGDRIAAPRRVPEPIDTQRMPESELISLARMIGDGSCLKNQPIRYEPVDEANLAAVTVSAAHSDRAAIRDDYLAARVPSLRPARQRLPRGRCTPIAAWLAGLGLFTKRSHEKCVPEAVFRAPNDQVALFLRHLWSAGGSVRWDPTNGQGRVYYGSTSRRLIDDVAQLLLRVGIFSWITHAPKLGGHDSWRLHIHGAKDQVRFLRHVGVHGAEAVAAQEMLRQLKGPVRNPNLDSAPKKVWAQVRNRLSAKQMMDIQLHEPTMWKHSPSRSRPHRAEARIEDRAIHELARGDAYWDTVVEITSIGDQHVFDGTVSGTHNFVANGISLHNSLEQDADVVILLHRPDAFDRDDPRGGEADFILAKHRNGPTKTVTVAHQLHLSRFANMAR
Put plainly: DnaB intein splicing inhibitors, dose response, biochemical, cell-free fluorescence (AID 449749). The assay is classed as functional.

A further assay deals with T4, Protein RecA (Mycobacterium tuberculosis, UniProt P9WHJ3).
T4 sequence (P9WHJ3 whole entry): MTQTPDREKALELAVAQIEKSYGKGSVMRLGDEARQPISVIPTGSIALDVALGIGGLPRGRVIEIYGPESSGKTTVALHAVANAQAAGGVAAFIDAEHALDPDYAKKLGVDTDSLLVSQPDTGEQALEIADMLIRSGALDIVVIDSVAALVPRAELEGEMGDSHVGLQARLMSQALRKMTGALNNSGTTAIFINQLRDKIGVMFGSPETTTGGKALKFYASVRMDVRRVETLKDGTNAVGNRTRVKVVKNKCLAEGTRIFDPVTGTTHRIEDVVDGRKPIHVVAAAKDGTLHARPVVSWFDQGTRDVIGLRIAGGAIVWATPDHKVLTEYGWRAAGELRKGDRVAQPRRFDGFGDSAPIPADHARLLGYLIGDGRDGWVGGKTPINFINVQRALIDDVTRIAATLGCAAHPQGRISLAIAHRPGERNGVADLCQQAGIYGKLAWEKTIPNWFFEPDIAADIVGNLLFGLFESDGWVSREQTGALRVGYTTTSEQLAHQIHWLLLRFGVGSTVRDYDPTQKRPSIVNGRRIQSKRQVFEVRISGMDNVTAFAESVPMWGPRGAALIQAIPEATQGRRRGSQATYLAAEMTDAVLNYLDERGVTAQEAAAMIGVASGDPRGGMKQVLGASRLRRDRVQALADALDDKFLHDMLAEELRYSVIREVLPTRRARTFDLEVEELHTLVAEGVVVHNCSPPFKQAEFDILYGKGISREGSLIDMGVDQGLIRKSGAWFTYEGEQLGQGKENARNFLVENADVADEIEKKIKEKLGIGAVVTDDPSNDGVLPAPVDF
Nature of the assay: Fluorescence Cell-Free Homogeneous Dose Retest to Identify Inhibitors of RecA-Intein Splicing Activity. [Related pubchem assays (depositor defined):AID2097, AID2223, AID489010, AID492950]. The class given is functional.

A further assay concerns the target T5, Caspase-6 (Homo sapiens, UniProt P55212).
T5 sequence (P55212 whole entry): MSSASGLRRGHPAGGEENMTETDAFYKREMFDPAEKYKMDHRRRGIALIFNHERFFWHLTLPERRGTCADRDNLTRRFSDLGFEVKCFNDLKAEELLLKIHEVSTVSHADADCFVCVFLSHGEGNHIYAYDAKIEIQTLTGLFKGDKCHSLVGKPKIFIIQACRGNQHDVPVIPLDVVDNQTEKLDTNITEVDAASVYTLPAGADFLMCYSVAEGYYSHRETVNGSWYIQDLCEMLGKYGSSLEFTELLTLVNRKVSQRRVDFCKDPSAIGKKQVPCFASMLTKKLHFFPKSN
Nature of the assay: human caspase-6 inhibitors, dose response, biochemical, VEID-R110 fluorescence, cherry-pick (AID 720632).

The target in assay [13] is T6, Tyrosyl-DNA phosphodiesterase 2 (Homo sapiens, UniProt O95551).
T6 sequence (O95551 whole entry): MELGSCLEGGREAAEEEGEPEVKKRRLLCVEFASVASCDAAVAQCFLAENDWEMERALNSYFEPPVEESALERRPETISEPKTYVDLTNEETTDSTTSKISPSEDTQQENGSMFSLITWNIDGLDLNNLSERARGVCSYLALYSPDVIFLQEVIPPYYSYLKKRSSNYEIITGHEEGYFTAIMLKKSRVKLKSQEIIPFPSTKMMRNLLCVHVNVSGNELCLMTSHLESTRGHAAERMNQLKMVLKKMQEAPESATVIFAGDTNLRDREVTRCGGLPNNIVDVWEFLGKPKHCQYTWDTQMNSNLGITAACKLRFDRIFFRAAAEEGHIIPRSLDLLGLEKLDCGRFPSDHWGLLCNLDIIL
Put plainly: human TDP2 enzyme inhibitors, dose response, biochemical, epi absorbance, IC50 (AID 743297).

Molecules are shown by their SMILES. Active and inactive are the calls of the source.

For `CN1C(=O)c2cc(NC(=O)c3ccc(C(F)(F)F)cc3)ccc2OC[C@@H]2O[C@@H](CC(=O)NC3Cc4ccccc4C3)CC[C@@H]21`, the AC50 in assay [1] was 4.71 µM (active); in assay [2] it was < 0.195 µM (active); in [3], 49.1 µM (active).
For the compound `CCN1/C(=C/c2ccc3cc(C)cc(C)c3[n+]2CC)Sc2cc(C)ccc21`, on Nonstructural protein 1, the IC50 is 17.6 µM (active). For the same compound, the figures for the AC50 in assay [4] and in assay [5] were 2.86 µM (active) and 7.93 µM (active), respectively.
Turning to `C=CCOc1ccc(/C=C2\SC(=S)N(NS(=O)(=O)c3ccc(C)cc3)C2=O)cc1`, the values for the EC50 in assay [6] and in assay [8] were > 160 µM (inactive) and 1.66 µM (active), respectively. The CC50 in [7] was 25 µM (active). Besides, the IC50 on Genome polyprotein was 32.9 µM (active). For the same compound, in assay [5], the AC50 was 11.7 µM (active).
As for `COc1ccc(-c2csc(NC(=O)CSc3nc(SC)ns3)n2)cc1`, the values for the IC50 in [9] and in assay [11] were 1.75 µM (active) and 4.64 µM (active), respectively. The EC50 in [10] is > 53 µM (inactive).
On to `Cc1nnc(N/N=C/c2ccccc2O)n1N`, for which the AC50 in assay [12] was 7.65 µM (active); on Caspase-6, 13.3 µM (active). Besides, at Protein RecA, the EC50 was 4.08 µM (active). Besides, in assay [13], the IC50 is > 128 µM (inactive).
